Laboratory results taken from ChEMBL document CHEMBL1201862, “PubChem BioAssay data set” (2004).
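Protocol summary: plate cells (96-well), add compound at 5 concentrations, incubate 48 h, interpolate endpoints linearly. GI50 = concentration required for 50% inhibition of growth.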 Active and inactive are the calls of the source. Rule as the data show it: active = GI50 up to about 1.1 µM and inactive = higher.

Tests used:
Test in all cases: NCI tumour cell line growth inhibition, 48 h
[1] = system: OVCAR-5
[2] = system: NCI-H226
[3] = system: UO-31
[4] = system: HOP-62
[5] = system: HL-60
[6] = system: A498
[7] = system: UACC-62
[8] = system: A549
[9] = system: SF-295
[10] = system: NCI-H460
[11] = system: UACC-257
[12] = system: DMS-114
[13] = system: SR
[14] = system: ACHN
[15] = system: RXF 393
[16] = system: EKVX
[17] = system: SK-OV-3
[18] = system: NCI-H23
[19] = system: HOP-92
[20] = system: SK-MEL-28
[21] = system: IGROV-1
[22] = system: KM12
[23] = system: OVCAR-8
[24] = system: TK-10
[25] = system: SNB-78
[26] = system: U-251
[27] = system: SNB-19
[28] = system: M14
[29] = system: M19-MEL
[30] = system: HT-29
[31] = system: HCT-116
[32] = system: LOX IMVI
[33] = system: OVCAR-3
[34] = system: DU-145
[35] = system: CAKI-1
[36] = system: RPMI-8226
[37] = system: 786-0
[38] = system: OVCAR-4
[39] = system: MDA-N
[40] = system: NCI/ADR-RES
[41] = system: SK-MEL-5
[42] = system: COLO 205
[43] = system: K562
[44] = system: SF-268
[45] = system: BT-549
[46] = system: SN12C
[47] = system: Hs-578T
[48] = system: PC-3
[49] = system: MCF7
[50] = system: HCT-15
[51] = system: MOLT-4
[52] = system: SK-MEL-2
[53] = system: SNB-75
[54] = system: CCRF-CEM
[55] = system: Malme-3M
[56] = system: HCC 2998
[57] = system: SW-620
[58] = system: T47D
[59] = system: SF-539
[60] = system: NCI-H522
[61] = system: MDA-MB-435
[62] = system: MDA-MB-231

Measured: GI50

COc1cc(O)c2c(c1C)C(C)(O)c1c(C)coc1C2=O (configuration not stated)
inactive: [1] > 100 µM | [2] 99.8 µM | [3] > 100 µM | [4] > 100 µM | [5] 57.7 µM | [6] 89.7 µM | [7] 74.1 µM | [8] > 100 µM | [9] > 100 µM | [10] > 100 µM | [11] > 100 µM | [12] > 100 µM | [13] > 100 µM | [14] > 100 µM | [15] > 100 µM | [16] > 100 µM | [17] > 100 µM | [18] > 100 µM | [19] > 100 µM | [20] > 100 µM | [21] > 100 µM | [22] > 100 µM | [23] > 100 µM | [24] > 100 µM | [25] > 100 µM | [26] > 100 µM | [27] > 100 µM | [28] > 100 µM | [29] > 100 µM | [30] > 100 µM | [31] > 100 µM

CCCC(=O)Nc1cn(COC)c(C(=O)N2C[C@@H]3C[C@]34C2=CC(=O)c2[nH]cc(C)c24)n1
13.7 µM: [50]
inactive: [32] 6.31 µM | [33] 10.3 µM | [34] 1.53 µM | [35] 1.91 µM | [36] 10.9 µM | [37] 5.15 µM | [38] 7.82 µM | [39] 9.29 µM | [40] 7.87 µM | [41] 4.36 µM | [42] 7.91 µM | [43] 4.35 µM | [44] 5.31 µM | [1] 28.7 µM | [2] 10.5 µM | [3] 12.3 µM | [4] 13.6 µM | [45] 7.74 µM | [46] 11.2 µM | [47] 15.1 µM | [6] 9.48 µM | [7] 7.62 µM | [8] 10.8 µM | [48] 6.81 µM | [9] 15.6 µM | [10] 4.79 µM | [11] 8.13 µM | [14] 3.26 µM | [49] 2.45 µM | [52] 8.47 µM | [15] 2.57 µM | [16] > 5 µM | [17] 11.2 µM | [53] 10.2 µM | [54] 1.27 µM | [55] 1.72 µM | [56] 5.31 µM | [18] 2.9 µM | [57] 5.58 µM | [19] 9.31 µM | [58] 4.85 µM | [59] 11.7 µM | [20] 14.5 µM | [21] 9.25 µM | [22] > 5 µM | [23] 4.23 µM | [24] 7.96 µM | [26] 12.9 µM | [27] 18.5 µM | [60] 3.28 µM | [28] 13.4 µM | [61] 9.23 µM | [62] 8.47 µM | [30] 7.76 µM | [31] 7.21 µM
active: [5] 1.07 µM | [13] 0.24 µM | [51] 0.857 µM

c1cc(-c2ccc(Oc3ccc(-c4ccncc4)cc3)cc2)ccn1
3.43 µM: [50]
inactive: [32] 9.18 µM | [33] 6.14 µM | [34] 11.4 µM | [35] 3.22 µM | [36] 1.67 µM | [37] 6.81 µM | [38] 5.47 µM | [39] 2.39 µM | [40] 3.01 µM | [41] 2.2 µM | [42] 3.56 µM | [43] 2.5 µM | [44] 22.6 µM | [1] 29.2 µM | [2] 27.6 µM | [3] 7.21 µM | [4] 23.6 µM | [45] 5.07 µM | [5] 2.18 µM | [46] 23.3 µM | [47] 12.8 µM | [6] 6.76 µM | [7] 7.18 µM | [8] 4.91 µM | [48] 27 µM | [9] 5.96 µM | [10] 3.93 µM | [11] 4.91 µM | [13] 3.15 µM | [14] 9.48 µM | [49] 4.26 µM | [51] 2.99 µM | [52] 5.38 µM | [15] 25.6 µM | [16] 5.53 µM | [17] 15.3 µM | [53] 15.9 µM | [54] 4.73 µM | [55] 6.82 µM | [56] 5 µM | [18] 3.18 µM | [57] 4.37 µM | [19] 14.1 µM | [58] 5.13 µM | [59] 5.4 µM | [20] > 26.7 µM | [21] 7.4 µM | [22] 5.22 µM | [23] 9.55 µM | [24] 7.18 µM | [26] 4.01 µM | [27] 6.25 µM | [60] 6.12 µM | [28] 4.76 µM | [61] 1.85 µM | [62] 18.3 µM | [30] 3.7 µM | [31] 4.24 µM

COC(=O)CCC(=O)NC1=C(Nc2ccc(OC)cc2)C(=O)c2ccccc2C1=O
inactive: [32] 4.15 µM | [33] 3.18 µM | [34] 14 µM | [35] 16.9 µM | [36] 15.7 µM | [37] 17.9 µM | [38] 11.8 µM | [39] 1.81 µM | [40] 16.3 µM | [41] 1.83 µM | [42] 14.5 µM | [43] 23.9 µM | [44] 18.9 µM | [1] 17.1 µM | [2] 17.7 µM | [3] 15.4 µM | [4] 18.7 µM | [45] 15.4 µM | [5] 10.8 µM | [46] 13.1 µM | [47] 20.8 µM | [6] 19.2 µM | [7] 3.16 µM | [8] 14 µM | [48] 9.66 µM | [9] 13 µM | [10] 7.21 µM | [11] 4.61 µM | [13] 12.9 µM | [14] 15.4 µM | [49] 4.11 µM | [51] 15.7 µM | [52] 6.3 µM | [15] 13.4 µM | [16] 17.7 µM | [17] 23.7 µM | [53] 2.52 µM | [54] 26.1 µM | [55] 2.05 µM | [56] 20.1 µM | [18] 6.34 µM | [57] 15.3 µM | [19] 8.69 µM | [58] 14.6 µM | [59] 14.2 µM | [20] 17.2 µM | [21] 11.9 µM | [22] 14.3 µM | [23] 14.1 µM | [24] 32.7 µM | [26] 16.5 µM | [27] 17.8 µM | [60] 10.8 µM | [28] 7.26 µM | [61] 2 µM | [62] 10.7 µM | [30] 12.6 µM | [31] 6.58 µM
7.18 µM: [50]

COc1cc2ncnc(Nc3cccc(Cl)c3)c2cc1OC [TYRPHOSTIN AG-1478]
inactive: [32] 11.5 µM | [33] 3.05 µM | [34] 1.89 µM | [36] 8.85 µM | [37] 6.28 µM | [38] 18.1 µM | [39] 15.1 µM | [40] 3.63 µM | [41] 6.1 µM | [42] 17.9 µM | [43] 8.71 µM | [44] 4.67 µM | [1] 9.46 µM | [2] 2.4 µM | [3] 4.47 µM | [4] 20.8 µM | [45] 1.42 µM | [5] 21.8 µM | [46] 8.91 µM | [47] 3.57 µM | [6] 2.54 µM | [7] 7.14 µM | [8] 10.6 µM | [48] 12.6 µM | [9] 9.48 µM | [10] 13.4 µM | [11] 7.57 µM | [13] 7.33 µM | [49] 21.5 µM | [51] 16.4 µM | [52] 9.27 µM | [15] 9.42 µM | [53] 2.57 µM | [54] 3.82 µM | [55] 6.28 µM | [56] 13.6 µM | [18] 14.6 µM | [57] 16.1 µM | [19] 5.19 µM | [58] 9.55 µM | [59] 15.9 µM | [20] 9.38 µM | [22] 5.73 µM | [23] 3.66 µM | [26] 15.2 µM | [27] 21 µM | [28] 7.16 µM | [61] 11.9 µM | [62] 14.2 µM | [30] 9.38 µM | [31] 17.6 µM
active: [35] 0.248 µM | [14] 0.0446 µM | [16] 0.392 µM | [17] 0.472 µM | [21] 0.0736 µM | [24] 0.173 µM | [60] 0.356 µM
9.25 µM: [50]
